Experimental findings from patent US12503455B2, “Nucleic acid-binding photoprobes and uses thereof” (Arrakis Therapeutics, Inc., priority 2017, dated 2025) are described below.

Experiment [1] relates to Aptamer 21. In words: LC-MS analysis of cross-linked RNA. In kind it is binding. The protocol:
Folded RNA (1.33 μM) was incubated with or without the photoaffinity probe (20 μM) in total 100 μL of buffer (20 mM TrisHCl pH 8, 100 mM KCl, 3 mM MgCl2) with 2% DMSO for 30 min at 37° C. to allow binding to come to equilibrium. The sample was then irradiated with long wave UV light (˜365 nm) for 30 min in a UV crosslinker (Fisher Scientific).
The RNA was then precipitated by adding 10 μL of 3 M sodium acetate pH 5 and 275 μL ethanol, cooling to −80° C. for 1 h, and then centrifuging at 20,500×g at 4° C. for 30 min. The RNA pellet was washed with 500 μL of 70% ethanol, air dried for 5 min, and then resuspended in 120 μL of water.
50 μL of RNA sample was injected onto Clarity 2.6 μm Oligo X-T column (50*2.1 mm, 60° C.), and the gradient and flowrate were as follows: 95% A/5% B to 75% A/25% B over 5 min, flowrate: 400 μL/min; 75% A/25% B to 30% A/70% B over 1 min, flowrate: 400 μL/min; 100% D over 1 min, flowrate: 500 μL/min; 95% A/5% B over 2 min, flowrate: 500 μL/min (A: 1% HFIPA (hexafluoroisopropyl alcohol), 0.1% DIEA (diisopropylethylamine), 1 μM EDTA (ethylenediamine tetraacetic acid) in H2O; B: 0.075% HFIPA, 0.0375% DIEA, 1 μM EDTA in 65/35 MeCN/H2O; D: 40/40/20% MeOH/MeCN/H2O); The LCMS instrument was a Thermo Finnigan LTQ, and ProMass deconvolution software coupled with Xcaliber were used for all data processing.

For experiment [2], the system named is Aptamer 21. In words: Reverse transcriptase pausing (drop-off) gel assay of photo-crosslinking to Aptamer 21. Format: binding. The conditions noted are these: FIG. 52. As to the method:
A solution of RNA at 2 to 5 μM in nuclease-free water was heated to 95° C. for 3 min and then cooled on ice for 2 min. This solution was diluted with ½ volume of 3×RNA folding buffer (60 mM TrisHCl pH 8, 300 mM KCl, 9 mM MgCl2) and incubated at 37° C. for 20 min. Folding was carried out immediately before use of the RNA in each experiment. In cases where a mixture of RNA molecules was used in vitro the RNAs were folded separately and then combined prior to the probing experiment.
(§1) Folded RNA (1 μM) was incubated with the photoaffinity probe (10 μM) in total 25 μL of buffer (20 mM TrisHCl pH 8, 100 mM KCl, 3 mM MgCl2) with 2.5% DMSO for 30 min at 37° C. to allow binding to come to equilibrium. The sample was then irradiated with long wave UV light (˜365 nm) for 30 min in a UV crosslinker (Fisher Scientific).
(§2) A 3.75 μL aliquot of 10 μM reverse transcription primer was added to the cross-linked RNA sample, which was then incubated for 5 min at 65° C. and then cooled on ice. The sample was then diluted to a final volume of 60 μL and final buffer concentration of 1× Protoscript-II buffer (New England Biolabs), 0.5 mM dNTPs, 10 mM DTT, 0.4 U/μL RNase Inhibitor (New England Biolabs), and 10 U/μL Protoscript-II (New England Biolabs). The reaction was incubated at 45° C. for 2 h, 65° C. for 20 min, and then 4° C.
(§3) The RNA was hydrolyzed by the addition of 4.8 μL of 2.5 M NaOH and heating at 95° C. for 5 min. The reaction was quenched by the addition of 0.9 μL of acetic acid. The cDNA was precipitated by the addition of 6.6 μL of 3 M sodium acetate pH 5 and 181 μL ethanol, cooling to −80° C. for 1 h, and then centrifuging at 20,500×g at 4° C. for 30 min. The cDNA pellet was washed twice with 500 μL of 70% ethanol and then air dried for 5 min.
(§4) The cDNA pellet was resuspended in 12 μL of 1×TBE-urea sample loading buffer (Bio-Rad) and heated to 95° C. for 5 min. The sample was then run on a pre-cast 8.6×6.7 cm TBE-urea 10% PAGE gel (Bio-Rad) at 120 V until the lower bromophenol blue dye reached the bottom of the gel. The gel was stained with 1×SYBR-gold (Invitrogen) in 1×TBE buffer at room temperature for 20 min covered from light. The gel fluorescence was imaged on an Azure c600 instrument.

Experiment [3] deals with Aptamer 21. In words: Surface plasmon resonance (SPR) binding to Aptamer 21. The conditions noted are these: for binding to Aptamer 21 by SPR, separated enantiomers: 10 uM. The source says:
Surface plasmon resonance (SPR) may be used to screen ligands and hook and click constructs for binding to a target RNA of interest. SPR is especially useful for monitoring biomolecular interactions in real time. Typically, target species and unrelated control are immobilized to a sensor chip, then analytes (compounds/fragments) are flowed over the surface. Binding of the compound to target species results in increase of SPR signal (association phase). Washing away bound compound with buffer results in a decrease of SPR signal (dissociation phase). Fitting of sensorgrams recorded at different compound concentrations is performed to an appropriate interaction model. The method allows extraction of kinetic parameters (ka, kd→KD). Requirements/limitations include that the ka/kd values be in reasonable ranges; and the target size must not be too large (<100 kDa). It is an excellent method to screen fragments and profile or validate hits. BC4000 may be used for primary screening (up to 4,000 data pts/week). Biacore T200 is suitable for hit profiling and validation.
In the PEARL-seq context, SPR allows monitoring binding of “hooks” to DNA/RNA aptamers. The target species is immobilized to sensor chip, analytes (i.e. hooks) are flowed over surface (association phase), DNA/RNA aptamer is flowed over surface (plateau phase), competitor compound is washed over surface (dissociation phase), thus yielding binding data.
Experiments were performed on a MASS-2 (Sierra Sensors) at 25° C. A high capacity amine chip was equilibrated with PBS. The chip was conditioned with alternating injections of 10 mM HCl and 10 mM NaOH in 1 M NaCl. The carboxymethylated dextran of the surface of the amine chip was activated for 7 minutes at a flow rate of 10 μL/min using a 1:1 volume ratio of 0.4 M 1-ethyl-3-(3-dimethylaminopropyl) carbodiimide (Sierra) and 0.1 M N-hydroxysuccinimide (Sierra). Neutravidin (70 μg/mL, Thermofisher) was injected over the activated surface for 10 minutes at a flow rate of 10 μl/min. Excess activated groups were blocked by an injection of 1 M ethanolamine, pH 8.5 (Sierra) for 7 minutes at a flow rate of 10 μl/min. A final injection of 10 mM NaOH in 1 M NaCl for 7 minutes at 10 μl/min was used to remove any unbound material to the chip. The immobilization reaction typically yielded approximately 12,000 resonance units (RU) of neutravidin. At least one spot in a channel was not injected with RNA and was used as a background control. Unrelated RNA was also used as a background control.
A 1 μM sample of biotin-aptamer 21 was prepared in RNAse free water, heated to 95° C. for 3 minutes, cooled on ice for 4 minutes, diluted with an equal volume 2× folding buffer (40 mM Tris-HCl, pH 8.0, 6 mM MgCl2, 200 mM KCl), and incubated at 37° C. for 30 minutes. The final concentration of RNA was 0.5 μM.
The MASS-2 was primed 2 times with 20 mM Tris-HCl, pH 8.0, 3 mM MgCl2, 100 mM KCl (Capture Buffer). RNA was injected over the neutravidin surface for 7 minutes at a flow rate of 10 μl/min. Capture levels typically reached approximately 3500-4500 of resonance units of aptamer 21.
Compounds were diluted 2-fold in 100% DMSO at a starting concentration of 500 μM.
The MASS-2 was primed 2 times with 20 mM Tris-HCl, pH 8.0, 3 mM MgCl2, 100 mM KCl, 1% DMSO (running buffer). Prior to testing compounds 3 injections of running buffer were used to equilibrate the sensor surface. […]
(In general: SPR reads the build-up and loss of mass on a sensor chip optically.)

Experiment [4] deals with Aptamer 21. In words: Competition between Aptamer 21 photoprobes and RNA-binding ligands (RT pausing). As to the method: Aptamer 21 was either incubated with probe alone (ARK-581) or probe plus a 10-fold excess of RNA-binding ligand.
Both ARK-852 and ARK-139 inhibit the photocrosslinking of probes to Aptamer 21.
as §1, §2, §3, §4

As for `COC(=O)C1=C(COCc2cn(CCOCCOCCNC(=O)c3ccc(N=[N+]=[N-])cc3)nn2)NC(c2ccncc2)=NC1c1ccc(F)cc1Cl` (stereo not shown) [ARK-581], in experiment [1], the “covalent modification of the RNA by LC-MS” value is 10%.

In the case of `Cc1ncccc1C(=O)n1ccnc1` [NAI, 2-methylnicotinic acid imidazolide, reference compound], the “shortened sequences produced in PEARL-seq reverse transcriptase pausing gel assay” value in experiment [2] was “numerous shortened sequences”.

For the compound `COC(=O)C1=C(COCc2cn(CCOCCOCCO)nn2)NC(c2ccncc2)=N[C@H]1c1ccc(F)cc1Cl` [ARK-701, (R)-methyl 4-(2-chloro-4-fluorophenyl)-6-(((1-(2-(2-(2-hydroxyethoxy)ethoxy)ethyl)-1H-1,2,3-triazol-4-yl)methoxy)methyl)-2-(pyridin-4-yl)-1,4-dihydropyrimidine-5-carboxylate], the “binding to Aptamer 21 by SPR, separated enantiomers” value in experiment [3] is “did bind”.

For the compound `COC(=O)C1=C(COCc2cn(CCOCCOCCO)nn2)NC(c2ccncc2)=N[C@@H]1c1ccc(F)cc1Cl` [ARK-702, (S)-methyl 4-(2-chloro-4-fluorophenyl)-6-(((1-(2-(2-(2-hydroxyethoxy)ethoxy)ethyl)-1H-1,2,3-triazol-4-yl)methoxy)methyl)-2-(pyridin-4-yl)-1,4-dihydropyrimidine-5-carboxylate], the “binding to Aptamer 21 by SPR, separated enantiomers” value in experiment [3] was “did not bind”.

`Cc1ccc(C(=O)N2Cc3ccccc3C[C@H]2C(N)=O)cc1NCc1c(F)ccc(O)c1F` [ARK-852]: the “inhibition of photocrosslinking of ARK-581 to Aptamer 21” value in experiment [4] (10-fold excess of RNA-binding ligand over probe) is “efficiently inhibited”. Besides, in experiment [4] (FIG. 65), the “inhibition of photocrosslinking of probes to Aptamer 21 (RT pausing competition assay)” value was “inhibit”. For the same compound, in experiment [3], the “binding to Aptamer 21 by SPR” value is “SPR-active”.
